The text below walks through data of US10870638B2, “Pyridazinone compound or its salt, and herbicide containing it” (ISHIHARA SANGYO KAISHA, LTD., priority 2016, dated 2020).

Common to all, as to assay: Test Example 1: foliar treatment, growth inhibition rate on 14th day
Common to all, as to format: in vivo
Holding throughout (conditions): active ingredient amount 31 g/ha, 14th day after application

Test [1] relates to barnyardgrass (Echinochloa crus-qalli L.). The text has this: (§1) Upland field soil was put into a 1/300,000 hectare pot, and seeds of various plants were sown. When the respective plants reached predetermined leaf stage ((1) barnyardgrass (Echinochloa crus-[…].): 0.5 to 2.9 leaf stage, (2) crabgrass (Digitaria sanquinalis L.): 0.5 to 3.0 leaf stage, (3) green foxtail (Setaria viridis L.): 0.5 to 3.2 leaf stage, (4) wild oat (Avena fatua L.): 0.4 to 1.2 leaf stage, (5) italian ryegrass (Lolium multiflorum Lam.): 0.4 to 2.0 leaf stage, (6) redroot pigweed (Amaranthus retroflexus L.): cotyledon stage to 2.2 leaf stage, (7) rice (Oryza sativa L.): 0.2 to 2.7 leaf stage, (8) corn (Zea mays L.): 1.7 to 3.6 leaf stage, (9) wheat (Triticum aestivum L.): 1.3 to 2.3 leaf stage, (10) soybean (Glycine max Merr.); primary leaf stage), wettable powders or emulsifiable concentrates of the compounds of the present invention prepared in accordance with a conventional preparation method, were weighed so as to achieve the prescribed active ingredient amounts, and diluted with water in an amount corresponding to 1,000 liters per 1 hectare (containing 0.1 vol % of an agricultural spreader (surfactant WK manufactured by MARUWA BIOCHEMICAL Co., Ltd.)), and the spray solutions thus prepared were applied for foliar treatment by a small sprayer. On the 14th day after the application, the state of growth of the respective plants was visually observed, and the herbicidal effect was evaluated by a growth inhibition rate (%) of 0 (equivalent to the non-treated area) to 100 (complete kill).

For a further test, the system named is corn (Zea mays L.).
Excerpt: as §1

Test [2] concerns crabgrass (Digitaria sanquinalis L.).
Excerpt: as §1

Test [3] relates to green foxtail (Setaria viridis L.).
Excerpt: as §1

The subject of test [4] is italian ryegrass (Lolium multiflorum Lam.).
Excerpt: as §1

Test [5] deals with redroot pigweed (Amaranthus retroflexus L.).
Excerpt: as §1

The next test has as its system rice (Oryza sativa L.).
Excerpt: as §1

Test [6] deals with soybean (Glycine max Merr.).
Excerpt: as §1

In test [7] the test system is wheat (Triticum aestivum L.).
Excerpt: as §1

The test system of test [8] is wild oat (Avena fatua L.).
Excerpt: as §1

SMILES strings stand for the structures.

For the compound `CC(=O)Oc1c(C)nn(C)c(=O)c1-c1cc(Oc2ncc(C(F)(F)F)cc2Br)ccc1C` [Compound 2-115], the “Growth inhibition rate (%) Barnyardgrass” value in test [1] is given as 100%. For the same compound, the “Growth inhibition rate (%) Corn” value with corn (Zea mays L.) came to 98%. Moreover, in test [2], the “Growth inhibition rate (%) Crabgrass” value is given as 95%. Further, in test [3], the “Growth inhibition rate (%) Green foxtail” value was found to be 98%. Also, the “Growth inhibition rate (%) Italian ryegrass” value in [4] came to 98%. In test [5], the “Growth inhibition rate (%) Redroot pigweed” value was found to be 20%. The “Growth inhibition rate (%) Rice” value in the test on rice (Oryza sativa L.) is 78%. Further, the “Growth inhibition rate (%) Soybean” value in test [6] amounted to 0%. Also, in [7], the “Growth inhibition rate (%) Wheat” value is reported as 83%. Further, the “Growth inhibition rate (%) Wild oat” value in test [8] turned out to be 100%.

In the case of `CC(=O)Oc1c(C)nn(C)c(=O)c1-c1cc(Oc2ccc(C(F)(F)F)cc2)ccc1C` [Compound 2-118], the “Growth inhibition rate (%) Barnyardgrass” value in test [1] is 85%. In the test with corn (Zea mays L.), the “Growth inhibition rate (%) Corn” value turned out to be 20%. Moreover, in test [2], the “Growth inhibition rate (%) Crabgrass” value is listed as 40%. Also, the “Growth inhibition rate (%) Green foxtail” value in test [3] is listed as 60%. The “Growth inhibition rate (%) Italian ryegrass” value in test [4] is recorded as 70%. In addition, the “Growth inhibition rate (%) Redroot pigweed” value in test [5] was 0%. In addition, in the test on rice (Oryza sativa L.), the “Growth inhibition rate (%) Rice” value is on record as 80%. Moreover, the “Growth inhibition rate (%) Soybean” value in test [6] is listed as 10%. The “Growth inhibition rate (%) Wheat” value in test [7] was found to be 50%. The “Growth inhibition rate (%) Wild oat” value in test [8] was found to be 88%.

On to `CCc1nn(C)c(=O)c(-c2cc(Oc3nc4ccc(Cl)cc4o3)ccc2C)c1OC(C)=O` [Compound 2-122], for which, in test [1], the “Growth inhibition rate (%) Barnyardgrass” value was 100%. Besides, the “Growth inhibition rate (%) Corn” value in the test with corn (Zea mays L.) is listed as 85%. Besides, the “Growth inhibition rate (%) Crabgrass” value in test [2] was 90%. In test [3], the “Growth inhibition rate (%) Green foxtail” value is given as 95%. In addition, in test [4], the “Growth inhibition rate (%) Italian ryegrass” value turned out to be 75%. Also, in test [5], the “Growth inhibition rate (%) Redroot pigweed” value amounted to 0%. The “Growth inhibition rate (%) Rice” value with rice (Oryza sativa L.) is 0%. Further, in test [6], the “Growth inhibition rate (%) Soybean” value is reported as 40%. Besides, in test [7], the “Growth inhibition rate (%) Wheat” value is on record as 60%. Moreover, in test [8], the “Growth inhibition rate (%) Wild oat” value is listed as 60%.

On to `CC(=O)Oc1c(C)nn(C)c(=O)c1-c1cc(Oc2ncc3cc(Br)ccc3n2)ccc1C` [Compound 2-123], for which, in test [1], the “Growth inhibition rate (%) Barnyardgrass” value worked out at 90%. Further, in the test with corn (Zea mays L.), the “Growth inhibition rate (%) Corn” value is reported as 0%. The “Growth inhibition rate (%) Crabgrass” value in test [2] was 10%. Moreover, the “Growth inhibition rate (%) Green foxtail” value in test [3] is reported as 83%. Also, in [4], the “Growth inhibition rate (%) Italian ryegrass” value was 0%. For the same compound, the “Growth inhibition rate (%) Redroot pigweed” value in test [5] was 0%. For the same compound, in the test with rice (Oryza sativa L.), the “Growth inhibition rate (%) Rice” value was 50%. In addition, the “Growth inhibition rate (%) Soybean” value in test [6] is given as 0%. In addition, the “Growth inhibition rate (%) Wheat” value in [7] is reported as 90%. Further, in [8], the “Growth inhibition rate (%) Wild oat” value is 10%.

As for `CC(=O)Oc1c(C)nn(C)c(=O)c1-c1cc(Oc2ncc(Cl)cn2)ccc1C` [Compound 2-124], the “Growth inhibition rate (%) Barnyardgrass” value in [1] is 85%. In the test with corn (Zea mays L.), the “Growth inhibition rate (%) Corn” value turned out to be 0%. The “Growth inhibition rate (%) Crabgrass” value in test [2] is 80%. The “Growth inhibition rate (%) Green foxtail” value in test [3] came out at 80%. Also, the “Growth inhibition rate (%) Italian ryegrass” value in [4] worked out at 0%. Moreover, the “Growth inhibition rate (%) Redroot pigweed” value in test [5] is given as 30%. The “Growth inhibition rate (%) Rice” value in the test with rice (Oryza sativa L.) came out at 0%. In test [6], the “Growth inhibition rate (%) Soybean” value amounted to 0%. In addition, the “Growth inhibition rate (%) Wheat” value in [7] was 0%. For the same compound, the “Growth inhibition rate (%) Wild oat” value in test [8] came to 0%.

As for `CC(=O)Oc1c(C)nn(C)c(=O)c1-c1cc(Oc2ncc(Cl)cc2C(F)(F)F)ccc1C` [Compound 2-125], the “Growth inhibition rate (%) Barnyardgrass” value in test [1] worked out at 100%. In addition, in the test on corn (Zea mays L.), the “Growth inhibition rate (%) Corn” value was found to be 90%. In addition, the “Growth inhibition rate (%) Crabgrass” value in test [2] worked out at 90%. Also, the “Growth inhibition rate (%) Green foxtail” value in test [3] is recorded as 50%. Moreover, the “Growth inhibition rate (%) Italian ryegrass” value in test [4] is on record as 93%. Moreover, in test [5], the “Growth inhibition rate (%) Redroot pigweed” value is 0%. For the same compound, the “Growth inhibition rate (%) Rice” value in the test with rice (Oryza sativa L.) is 70%. Also, in test [6], the “Growth inhibition rate (%) Soybean” value is 0%. Also, the “Growth inhibition rate (%) Wheat” value in test [7] turned out to be 50%. For the same compound, in test [8], the “Growth inhibition rate (%) Wild oat” value amounted to 90%.

As for `CC(=O)Oc1c(C)nn(C)c(=O)c1-c1cc(Oc2ncc(Cl)cc2Cl)ccc1C` [Compound 2-128], in test [1], the “Growth inhibition rate (%) Barnyardgrass” value turned out to be 85%. The “Growth inhibition rate (%) Corn” value in the test with corn (Zea mays L.) was determined as 75%. Moreover, in test [2], the “Growth inhibition rate (%) Crabgrass” value is reported as 83%. The “Growth inhibition rate (%) Green foxtail” value in test [3] is on record as 75%. In addition, the “Growth inhibition rate (%) Italian ryegrass” value in [4] came to 93%. Also, the “Growth inhibition rate (%) Redroot pigweed” value in [5] amounted to 0%. Further, the “Growth inhibition rate (%) Rice” value in the test with rice (Oryza sativa L.) stood at 45%. The “Growth inhibition rate (%) Soybean” value in [6] amounted to 0%. Besides, the “Growth inhibition rate (%) Wheat” value in test [7] was 60%. The “Growth inhibition rate (%) Wild oat” value in [8] worked out at 88%.

For `CC(=O)Oc1c(C)nn(C)c(=O)c1-c1cc(Oc2nccc(C(F)(F)F)c2Cl)ccc1C` [Compound 2-131], the “Growth inhibition rate (%) Barnyardgrass” value in test [1] is listed as 85%. Also, the “Growth inhibition rate (%) Corn” value in the test on corn (Zea mays L.) is 40%. For the same compound, in [2], the “Growth inhibition rate (%) Crabgrass” value is reported as 65%. Further, in test [3], the “Growth inhibition rate (%) Green foxtail” value is 98%. Also, the “Growth inhibition rate (%) Italian ryegrass” value in test [4] is listed as 78%. In addition, the “Growth inhibition rate (%) Redroot pigweed” value in test [5] is listed as 10%. Further, the “Growth inhibition rate (%) Rice” value with rice (Oryza sativa L.) amounted to 10%. The “Growth inhibition rate (%) Soybean” value in test [6] stood at 10%. For the same compound, the “Growth inhibition rate (%) Wheat” value in [7] is recorded as 45%. Moreover, the “Growth inhibition rate (%) Wild oat” value in test [8] is on record as 50%.

With `CC(=O)Oc1c(C)nn(C)c(=O)c1-c1cc(Oc2nc3cc(Cl)ccc3o2)ccc1C` [Compound 2-139], the “Growth inhibition rate (%) Barnyardgrass” value in [1] was found to be 90%. Besides, the “Growth inhibition rate (%) Corn” value in the test on corn (Zea mays L.) worked out at 65%. The “Growth inhibition rate (%) Crabgrass” value in test [2] amounted to 98%. Moreover, in [3], the “Growth inhibition rate (%) Green foxtail” value was found to be 90%. In addition, the “Growth inhibition rate (%) Italian ryegrass” value in [4] is 98%. Further, the “Growth inhibition rate (%) Redroot pigweed” value in test [5] is 0%. Further, the “Growth inhibition rate (%) Rice” value in the test with rice (Oryza sativa L.) worked out at 98%. Besides, the “Growth inhibition rate (%) Soybean” value in test [6] was 10%. Besides, the “Growth inhibition rate (%) Wheat” value in [7] stood at 95%. The “Growth inhibition rate (%) Wild oat” value in test [8] was 98%.

`CC(=O)Oc1c(C)nn(C)c(=O)c1-c1cc(Oc2nc3ccc(C)cc3s2)ccc1C` [Compound 2-152]: in [1], the “Growth inhibition rate (%) Barnyardgrass” value came out at 85%. The “Growth inhibition rate (%) Corn” value in the test with corn (Zea mays L.) came out at 0%. For the same compound, the “Growth inhibition rate (%) Crabgrass” value in test [2] came to 20%. Also, in test [3], the “Growth inhibition rate (%) Green foxtail” value amounted to 85%. Further, in [4], the “Growth inhibition rate (%) Italian ryegrass” value is 35%. Also, the “Growth inhibition rate (%) Redroot pigweed” value in [5] came out at 0%. The “Growth inhibition rate (%) Rice” value with rice (Oryza sativa L.) was found to be 78%. In addition, the “Growth inhibition rate (%) Soybean” value in test [6] amounted to 0%. In test [7], the “Growth inhibition rate (%) Wheat” value was found to be 75%. Further, in test [8], the “Growth inhibition rate (%) Wild oat” value is recorded as 0%.

As to `COc1ccc2nc(Oc3ccc(C)c(-c4c(OC(C)=O)c(C)nn(C)c4=O)c3)sc2c1` [Compound 2-154], the “Growth inhibition rate (%) Barnyardgrass” value in test [1] came out at 80%. Also, the “Growth inhibition rate (%) Corn” value with corn (Zea mays L.) worked out at 0%. Besides, the “Growth inhibition rate (%) Crabgrass” value in test [2] is given as 10%. In test [3], the “Growth inhibition rate (%) Green foxtail” value was 60%. In test [4], the “Growth inhibition rate (%) Italian ryegrass” value is reported as 10%. For the same compound, the “Growth inhibition rate (%) Redroot pigweed” value in test [5] was found to be 0%. Also, the “Growth inhibition rate (%) Rice” value in the test with rice (Oryza sativa L.) is 0%. Further, in test [6], the “Growth inhibition rate (%) Soybean” value is 10%. In addition, the “Growth inhibition rate (%) Wheat” value in test [7] was determined as 0%. Also, the “Growth inhibition rate (%) Wild oat” value in test [8] was 0%.
